Test [1] relates to Streptococcus sp. 'group A'. Description: Streptococcus pyogenes SK(-)GAS viability under kanamycin – luminescence, BacTiterGlo, confirmation, counter-screen for streptokinase expression inhibitor project, dose response (AID 1900). In kind it is functional, organism-based.
Another test deals with Streptococcus. Description: GAS UMAA2166 growth inhibition – luminescence, BacTiterGlo, counter-screen for streptokinase expression inhibitor project, dose response (AID 1915).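 Note: potency for reduction of bacterial viability or growth.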 It is filed as functional, organism-based. Background: The purpose of a counterscreen is to sort out artefacts and off-target activity.
The next test deals with T1, Streptokinase A (Streptococcus pyogenes serotype M1, UniProt P10520).
T1 sequence (P10520 whole entry): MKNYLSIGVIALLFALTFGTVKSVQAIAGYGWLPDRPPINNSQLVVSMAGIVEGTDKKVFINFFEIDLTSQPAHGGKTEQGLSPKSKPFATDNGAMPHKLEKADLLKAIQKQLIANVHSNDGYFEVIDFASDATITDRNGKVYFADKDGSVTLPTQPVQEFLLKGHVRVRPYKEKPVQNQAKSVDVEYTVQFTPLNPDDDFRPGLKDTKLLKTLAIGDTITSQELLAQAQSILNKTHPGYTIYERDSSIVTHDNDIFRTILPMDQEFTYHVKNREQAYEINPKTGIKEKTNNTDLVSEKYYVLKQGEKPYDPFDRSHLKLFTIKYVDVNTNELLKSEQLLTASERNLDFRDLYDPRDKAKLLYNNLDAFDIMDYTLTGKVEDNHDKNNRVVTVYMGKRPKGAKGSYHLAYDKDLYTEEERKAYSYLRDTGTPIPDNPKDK
The test is described as follows: viability-normalized secreted streptokinase activity reduction – plasminogen activation absorbance, OD405, dose response (AID 1914).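 Note: secreted streptokinase activity via plasminogen activation per viability signal from cell pellet.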 It is filed as functional, Streptococcus pyogenes M1 GAS.

Test [2] concerns the target Disintegrin and metalloproteinase domain-containing protein 17 (Homo sapiens, UniProt P78536). Description: inhibition of ADAM17 substrate cleavage – biochemical, quenched FRET substrate, counter-screen for ADAM10 exosite inhibitor project, dose response (AID 743253).
The target of the next test is T2, Caspase-3 (Homo sapiens, UniProt P42574).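 Note: Dose-response selectivity test against caspase-3 for candidate inhibitors of sentrin-specific proteases (SENPs).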
T2 sequence (P42574 whole entry): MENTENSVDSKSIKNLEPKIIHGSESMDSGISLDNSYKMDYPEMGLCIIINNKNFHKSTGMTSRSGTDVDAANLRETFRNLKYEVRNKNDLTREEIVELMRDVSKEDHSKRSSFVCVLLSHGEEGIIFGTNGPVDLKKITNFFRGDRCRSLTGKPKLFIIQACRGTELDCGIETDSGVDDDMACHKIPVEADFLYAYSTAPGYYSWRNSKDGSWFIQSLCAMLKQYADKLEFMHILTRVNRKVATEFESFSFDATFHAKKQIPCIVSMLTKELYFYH
In kind it is functional.

Test [3] has as its target T3, Oxysterols receptor LXR-beta (Homo sapiens, UniProt P55055).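 Note: Cell-based luminescence dose-response assay of agonist activity at LXR, run as a confirmatory counterscreen to a daf-12 agonist screen; HEK293 cells with Gal4-LXR fusion and GAL4-driven luciferase reporter; agonist potency from rising luciferase signal of a Gal4-LXR reporter.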
T3 sequence (P55055 whole entry): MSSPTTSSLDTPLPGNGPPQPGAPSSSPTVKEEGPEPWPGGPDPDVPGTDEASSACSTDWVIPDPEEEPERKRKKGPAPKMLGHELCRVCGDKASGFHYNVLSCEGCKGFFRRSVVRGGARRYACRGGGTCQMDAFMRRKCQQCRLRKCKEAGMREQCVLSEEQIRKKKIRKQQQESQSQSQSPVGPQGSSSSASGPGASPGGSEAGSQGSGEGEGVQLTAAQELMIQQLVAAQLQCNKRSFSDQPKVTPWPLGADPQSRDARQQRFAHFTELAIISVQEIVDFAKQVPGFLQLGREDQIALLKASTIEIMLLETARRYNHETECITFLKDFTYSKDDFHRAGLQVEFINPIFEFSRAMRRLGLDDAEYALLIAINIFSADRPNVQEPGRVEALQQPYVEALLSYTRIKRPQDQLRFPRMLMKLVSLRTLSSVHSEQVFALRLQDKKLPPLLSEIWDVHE
It is filed as functional, cell-based.

Test [4] concerns the target T4, Sentrin-specific protease 6 (Homo sapiens, UniProt Q9GZR1).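 Note: Luminescence-based dose-response confirmatory assay of SENP6 inhibition, following up an ultra-high-throughput screen.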
T4 sequence (Q9GZR1 whole entry): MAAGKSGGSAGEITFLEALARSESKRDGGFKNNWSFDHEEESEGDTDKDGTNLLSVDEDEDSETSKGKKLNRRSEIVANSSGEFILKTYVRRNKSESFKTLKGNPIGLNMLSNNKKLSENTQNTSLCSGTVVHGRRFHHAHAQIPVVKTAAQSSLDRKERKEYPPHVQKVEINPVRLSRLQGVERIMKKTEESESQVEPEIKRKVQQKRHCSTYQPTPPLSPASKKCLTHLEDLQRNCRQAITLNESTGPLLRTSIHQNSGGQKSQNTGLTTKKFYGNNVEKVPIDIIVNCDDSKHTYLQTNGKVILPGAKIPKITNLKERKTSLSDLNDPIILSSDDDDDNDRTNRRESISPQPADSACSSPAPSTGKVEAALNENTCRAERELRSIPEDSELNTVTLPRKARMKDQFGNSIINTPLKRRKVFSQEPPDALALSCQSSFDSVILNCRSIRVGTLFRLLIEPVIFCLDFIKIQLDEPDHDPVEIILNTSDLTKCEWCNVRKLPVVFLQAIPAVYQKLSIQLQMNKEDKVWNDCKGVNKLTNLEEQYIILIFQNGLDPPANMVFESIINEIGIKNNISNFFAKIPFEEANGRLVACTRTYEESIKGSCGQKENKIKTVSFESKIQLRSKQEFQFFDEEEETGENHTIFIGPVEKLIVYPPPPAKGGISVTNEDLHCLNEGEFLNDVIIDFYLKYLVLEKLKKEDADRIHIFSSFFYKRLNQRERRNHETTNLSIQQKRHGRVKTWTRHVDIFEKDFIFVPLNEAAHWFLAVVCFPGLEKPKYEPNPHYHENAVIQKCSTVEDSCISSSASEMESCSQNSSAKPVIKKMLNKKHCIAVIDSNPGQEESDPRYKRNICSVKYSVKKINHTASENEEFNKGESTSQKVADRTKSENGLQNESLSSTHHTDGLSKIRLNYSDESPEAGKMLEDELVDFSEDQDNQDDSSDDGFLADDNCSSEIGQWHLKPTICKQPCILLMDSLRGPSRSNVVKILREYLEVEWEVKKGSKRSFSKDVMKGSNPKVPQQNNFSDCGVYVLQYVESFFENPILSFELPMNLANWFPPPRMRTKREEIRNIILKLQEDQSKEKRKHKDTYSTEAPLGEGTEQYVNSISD
It is filed as functional.

In test [5] the target is T5, Sentrin-specific protease 8 (Homo sapiens, UniProt Q96LD8).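 Note: luminescence read-out of SENP8 inhibition, dose-response confirmation following an ultra-high-throughput screen.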
T5 sequence (Q96LD8 whole entry): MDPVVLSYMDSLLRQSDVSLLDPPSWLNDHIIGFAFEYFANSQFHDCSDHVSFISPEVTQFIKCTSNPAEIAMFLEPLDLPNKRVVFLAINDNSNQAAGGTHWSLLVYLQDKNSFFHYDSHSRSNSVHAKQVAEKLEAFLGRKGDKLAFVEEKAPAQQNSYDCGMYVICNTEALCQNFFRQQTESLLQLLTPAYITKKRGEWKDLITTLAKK
In kind it is functional.

Test [6] deals with T6, Sentrin-specific protease 7 (Homo sapiens, UniProt Q9BQF6).
T6 sequence (Q9BQF6 whole entry): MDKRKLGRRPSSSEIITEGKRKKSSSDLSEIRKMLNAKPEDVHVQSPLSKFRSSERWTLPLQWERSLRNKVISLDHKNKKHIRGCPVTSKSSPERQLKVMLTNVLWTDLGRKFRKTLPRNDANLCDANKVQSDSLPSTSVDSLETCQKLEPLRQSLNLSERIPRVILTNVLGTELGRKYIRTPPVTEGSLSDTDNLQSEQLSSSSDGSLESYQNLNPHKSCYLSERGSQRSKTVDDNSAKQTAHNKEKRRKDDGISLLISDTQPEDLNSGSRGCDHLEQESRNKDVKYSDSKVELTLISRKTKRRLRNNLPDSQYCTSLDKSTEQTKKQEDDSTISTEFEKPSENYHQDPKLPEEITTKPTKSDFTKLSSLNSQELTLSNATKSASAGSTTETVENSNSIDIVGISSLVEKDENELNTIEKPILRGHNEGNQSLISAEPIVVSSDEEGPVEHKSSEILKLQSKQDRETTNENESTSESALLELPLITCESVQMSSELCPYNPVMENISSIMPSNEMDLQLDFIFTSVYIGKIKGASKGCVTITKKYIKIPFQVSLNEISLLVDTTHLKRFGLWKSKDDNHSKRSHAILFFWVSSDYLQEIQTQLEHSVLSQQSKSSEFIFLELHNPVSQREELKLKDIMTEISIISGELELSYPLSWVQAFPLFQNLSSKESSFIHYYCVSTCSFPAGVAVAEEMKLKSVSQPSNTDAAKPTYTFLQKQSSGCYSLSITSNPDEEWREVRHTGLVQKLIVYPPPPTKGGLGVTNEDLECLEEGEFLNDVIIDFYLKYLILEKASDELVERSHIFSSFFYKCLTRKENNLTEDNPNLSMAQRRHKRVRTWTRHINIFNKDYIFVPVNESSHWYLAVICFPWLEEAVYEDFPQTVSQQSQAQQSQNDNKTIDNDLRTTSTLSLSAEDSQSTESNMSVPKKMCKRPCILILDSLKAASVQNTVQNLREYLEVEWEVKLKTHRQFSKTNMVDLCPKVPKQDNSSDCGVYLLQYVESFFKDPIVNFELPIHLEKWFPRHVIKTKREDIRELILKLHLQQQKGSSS
It is filed as functional.

Test [7] is described as follows: Dd2 parasite growth inhibition in erythrocytes – SYBR Green, dry powder samples, set 9, dose response (AID 1159568). It is filed as functional, cell-based.
The nature of test [8]: Reduced DLD-1 viability, concentration-response, CellTiter-Glo luminescence (AID 1117352). In kind it is functional. On the technique in general: ATP-based viability assays read luminescence as a measure of living cells.
Test [9] is described as follows: cytotoxicity toward Colo320 cells – cell-based, CellTiter-Glo luminescence, IC50, dose response (AID 1117334). It is filed as functional. Particulars: COLO 320.
Test [10] is described as follows: rise of 4N DNA cells, HeLa – IC50, dose response (AID 1117351). In kind it is functional, cell-based.
Test [11] can be described thus: RKO cell viability reduction, dose response, CellTiter-Glo luminescence (AID 1117322). It is filed as functional.
Test [12] is described as follows: cytotoxicity toward HCT116 cells – cell-based, CellTiter-Glo luminescence, IC50, dose response (AID 1117332). In kind it is functional. As to conditions: HCT-116.
A short description of test [13]: rise of 2N DNA cells, HeLa – IC50, dose response (AID 1117349). It is filed as functional, cell-based.
A short description of test [14]: SNU-C1 cell viability reduction, dose response, CellTiter-Glo luminescence (AID 1117323). It is filed as functional, cell-based.
The nature of test [15]: cytotoxicity toward HT-29 cells – cell-based, CellTiter-Glo luminescence, IC50, dose response (AID 1117330). It is filed as functional.
Test [16] can be described thus: HCT116 cell viability decrease, GSK3B pretreatment – CellTiter-Glo, IC50, dose response (AID 1117339). It is filed as functional. Particulars: HCT-116.

Experimental findings from ChEMBL document CHEMBL1201862, “PubChem BioAssay data set” (2004) are described below.

The structures appear in SMILES notation. Calls of active or inactive are those of the source. Bounds are passed on as bounds.

Chain of Disintegrin and metalloproteinase domain-containing protein 17 (P78536 whole entry, the tested form may be a part): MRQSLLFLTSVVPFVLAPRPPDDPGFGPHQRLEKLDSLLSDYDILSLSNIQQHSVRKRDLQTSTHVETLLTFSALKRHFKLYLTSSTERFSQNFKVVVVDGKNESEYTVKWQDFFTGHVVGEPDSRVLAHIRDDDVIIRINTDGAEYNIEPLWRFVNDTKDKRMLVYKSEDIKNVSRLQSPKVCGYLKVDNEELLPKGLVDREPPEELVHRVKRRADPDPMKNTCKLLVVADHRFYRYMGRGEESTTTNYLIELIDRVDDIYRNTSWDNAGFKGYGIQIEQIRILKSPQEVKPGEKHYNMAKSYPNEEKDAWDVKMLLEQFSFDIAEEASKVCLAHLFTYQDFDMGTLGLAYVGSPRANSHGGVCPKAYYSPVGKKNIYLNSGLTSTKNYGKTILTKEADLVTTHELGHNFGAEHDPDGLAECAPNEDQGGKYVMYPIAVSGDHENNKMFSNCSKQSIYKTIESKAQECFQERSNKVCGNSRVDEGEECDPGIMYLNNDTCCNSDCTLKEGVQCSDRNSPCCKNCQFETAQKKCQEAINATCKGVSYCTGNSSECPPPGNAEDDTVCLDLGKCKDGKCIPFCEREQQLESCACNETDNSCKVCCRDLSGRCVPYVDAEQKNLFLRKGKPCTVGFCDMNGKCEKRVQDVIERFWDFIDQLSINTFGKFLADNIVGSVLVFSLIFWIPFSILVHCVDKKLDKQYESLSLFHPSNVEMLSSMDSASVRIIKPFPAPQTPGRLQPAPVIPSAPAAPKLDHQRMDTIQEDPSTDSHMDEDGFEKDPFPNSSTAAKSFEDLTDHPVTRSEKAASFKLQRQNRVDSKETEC

What is called EC50 is the concentration needed to bring the measured effect to its halfway point. As usually defined, the IC50 is the concentration at which inhibition is half-maximal. Regarding `CCc1ccc(NC(=O)c2ccc(F)c(S(=O)(=O)NCC3COc4ccccc4O3)c2)cc1` (stereo not given), the EC50 in test [1] was 10.7 µM (active); in the test with Streptococcus, 18.4 µM (active); at Streptokinase A it was 35.2 µM (active). Moreover, the IC50 in [2] was > 69.5 µM (inactive).

For `NC(=O)c1c(NC(=O)c2ccccc2)sc2c1CCC2`, the IC50 was 27.7 µM (active) on Caspase-3, > 100 µM (inactive) in test [4], > 100 µM (inactive) in [5] and 7.52 µM (active) in test [6]. Moreover, the EC50 (in [3]; in the test “cells”) was > 67.5 µM (inactive) in each case.

The AC50 is the midpoint of the concentration-response curve, whichever way the signal moves. Take `O=C(C[C@@H]1C[C@H]2c3cc(NC(=O)c4ccc5c(c4)OCO5)ccc3O[C@H]2[C@H](CO)O1)NCc1ccc(Oc2ccccc2)cc1`: the AC50 in [7] is 25.6 µM (active).

Turning to `Nc1nc(Cl)nc2c1ncn2[C@@H]1O[C@H](CO)[C@@H](O)[C@@H]1F` [CLOFARABINE], the IC50 in test [8] is 164 nM (active); in test [9] it was > 20 µM (inactive); in test [10] it was > 10 µM (inactive); in test [11], 1 nM (active); in [12], 1 nM (active); in test [13], > 10 µM (inactive). For the same compound, the IC50 in [14] was > 20 µM (inactive); in test [15], > 20 µM (inactive); in test [16], 1 nM (active).
